Assays:
[1] = target: T1, FAAH Human recombinant (Homo sapiens, UniProt O00519); experiment: FAAH inhibition assay; format: biochemical; conditions: ± SEM, substrate AMC-AA 1 µM
T1 construct: purchased Cayman Chemical
T1 sequence (O00519 1-579): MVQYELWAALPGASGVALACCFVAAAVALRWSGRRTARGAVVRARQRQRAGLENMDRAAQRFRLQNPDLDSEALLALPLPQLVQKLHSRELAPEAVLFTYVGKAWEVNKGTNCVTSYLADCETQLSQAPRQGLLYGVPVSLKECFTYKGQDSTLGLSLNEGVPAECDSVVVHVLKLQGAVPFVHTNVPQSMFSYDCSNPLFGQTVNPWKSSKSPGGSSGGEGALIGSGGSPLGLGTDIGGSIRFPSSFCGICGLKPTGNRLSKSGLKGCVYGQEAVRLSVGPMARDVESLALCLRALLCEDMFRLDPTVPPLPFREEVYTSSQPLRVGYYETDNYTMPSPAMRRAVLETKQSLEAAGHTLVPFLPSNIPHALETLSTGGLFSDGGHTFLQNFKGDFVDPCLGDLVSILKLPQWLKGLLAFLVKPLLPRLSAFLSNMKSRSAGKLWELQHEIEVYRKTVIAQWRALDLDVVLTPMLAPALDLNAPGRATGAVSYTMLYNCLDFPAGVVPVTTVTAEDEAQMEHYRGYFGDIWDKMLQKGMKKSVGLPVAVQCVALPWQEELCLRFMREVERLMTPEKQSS
Method: Assays were performed using 96-well black flat-bottom microtiter NBS plates (COSTAR flat black). […] The substrate (7-amino-4-methyl-2 H-1-benzopyran-2-one-5Z,8Z,11Z,14Z-eicosatetraen-amide, AMC-AA, 1µM final concentration) was then added, and the assay was incubated for 2 h at 37 °C in a TECAN infinite M1000Pro plate reader (Tecan, Männedorf, Switzerland) which measured the fluorescence from each well every 30 s (λex = 340 nm, λem = 450 nm), determining FAAH activity as relative fluorescence units (RFU). Control wells lacking the inhibitor and blank wells lacking both inhibitor and enzyme were used to calculate the percent inhibition for each tested compound. IC50 values were calculated via GraphPad Prism 5.0 (GraphPad Software, La Jolla, CA, USA) and are reported as mean ± SEM of at least three independent measurements performed in triplicate.

[2] = tested on: HGC27-S/R and AGS cell lines; experiment: VEGFA in cell culture medium (ELISA), all lines; format: cell-based, human; conditions: all the cell lines investigated, 48 h
Method: (§1) The amount of VEGFA secreted in the culture medium by HGC27-S/R and AGS treated cells was measured using a highly sensitive Enzyme-Linked Immunosorbent Assay (ELISA), Quantikine Kit ELISA (R&D Systems, Minneapolis, MN, USA), according to the manufacturer’s instructions. The measured values were normalized to the number of cells.

[3] = tested on: HGC27-S cells; experiment: VEGFA in cell culture medium (ELISA); format: cell-based, human; conditions: 10 µM, 48 h, untreated 3.82
Method: as §1

Row | Structure (SMILES) | FAAHi IC50 [1] | IC50 ([1]; read-out: FAAHi IC50) [µM] | VEGFA secretion in culture medium (in words) [2] | VEGFA secretion in culture medium [3] [pg/mL/cell]
1 | COc1ccc(C(=O)c2c(C)n(CCN3CCOCC3)c3cc(I)ccc23)cc1 [AM630, reference compound] | low FAAH inhibition activity | 20 ± 2.8 | increase in VEGFA secretion | 
2 | O=C(NC12CC3CC(CC(C3)C1)C2)c1ccccc1OCc1ccccc1 [CC48] |  |  |  | 2.6

Reference: paper PMC12265377, “CC48 a new CB2R agonist/FAAH inhibitor dual drug blocks gastric cancer progression and overcomes paclitaxel resistance” (Journal of Experimental & Clinical Cancer Research : CR, 2025)
